These are literature values, as cited in US20090017120A1, “Phase stable lecithin organogel composition” (Humco Holding Group, Inc., priority 2007, published 2009).

For this data set the following is noted: 20% wt/vol pluronic gels, pH 7, 20° C.

Molecules are shown by their SMILES.

On to `COc1ccc2c(c1)c(CC(=O)O)c(C)n2C(=O)c1ccc(Cl)cc1` [indomethacin], for which the “time to 10% indomethacin degradation” value is 2.7 years.
